Literature values, collected in US7354953B2, “Time-release compositions for delivery of [Cr3O(carboxylate)6(H2O)3]+” (University of Alabama, priority 2006, dated 2008).

Experiments:
[1] = test system: healthy and model type 2 diabetic rats
insulin receptor = insulin receptor (Homo sapiens, UniProt P06213)
[2] = in vivo
rats = conditions: for effect on body mass, percentage lean or fat content, tissue size, blood variables: rats on regular diets
[3] = test system: adult-onset diabetic patients
[4] = healthy and model type 2 diabetic rats

insulin receptor, sequence (P06213 763-1382 limits assumed, species assumed): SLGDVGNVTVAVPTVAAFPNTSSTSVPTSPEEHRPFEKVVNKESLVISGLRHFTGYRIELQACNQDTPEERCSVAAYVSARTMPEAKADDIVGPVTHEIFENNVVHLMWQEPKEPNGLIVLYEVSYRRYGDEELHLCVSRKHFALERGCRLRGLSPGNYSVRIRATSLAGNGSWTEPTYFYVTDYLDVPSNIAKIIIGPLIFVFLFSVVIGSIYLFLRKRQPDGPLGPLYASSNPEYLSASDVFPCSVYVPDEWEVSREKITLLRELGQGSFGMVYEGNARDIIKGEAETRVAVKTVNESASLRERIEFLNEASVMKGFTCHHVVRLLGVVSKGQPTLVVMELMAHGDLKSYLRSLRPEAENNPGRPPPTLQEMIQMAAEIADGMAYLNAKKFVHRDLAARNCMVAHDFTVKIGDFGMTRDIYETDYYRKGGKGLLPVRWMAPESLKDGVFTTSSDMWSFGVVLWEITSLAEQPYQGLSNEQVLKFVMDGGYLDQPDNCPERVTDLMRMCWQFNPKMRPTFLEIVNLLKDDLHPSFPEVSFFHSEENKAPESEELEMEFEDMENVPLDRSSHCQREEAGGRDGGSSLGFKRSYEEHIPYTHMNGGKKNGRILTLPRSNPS
insulin receptor, sequence (P06213 28-758 partner limits assumed, species assumed): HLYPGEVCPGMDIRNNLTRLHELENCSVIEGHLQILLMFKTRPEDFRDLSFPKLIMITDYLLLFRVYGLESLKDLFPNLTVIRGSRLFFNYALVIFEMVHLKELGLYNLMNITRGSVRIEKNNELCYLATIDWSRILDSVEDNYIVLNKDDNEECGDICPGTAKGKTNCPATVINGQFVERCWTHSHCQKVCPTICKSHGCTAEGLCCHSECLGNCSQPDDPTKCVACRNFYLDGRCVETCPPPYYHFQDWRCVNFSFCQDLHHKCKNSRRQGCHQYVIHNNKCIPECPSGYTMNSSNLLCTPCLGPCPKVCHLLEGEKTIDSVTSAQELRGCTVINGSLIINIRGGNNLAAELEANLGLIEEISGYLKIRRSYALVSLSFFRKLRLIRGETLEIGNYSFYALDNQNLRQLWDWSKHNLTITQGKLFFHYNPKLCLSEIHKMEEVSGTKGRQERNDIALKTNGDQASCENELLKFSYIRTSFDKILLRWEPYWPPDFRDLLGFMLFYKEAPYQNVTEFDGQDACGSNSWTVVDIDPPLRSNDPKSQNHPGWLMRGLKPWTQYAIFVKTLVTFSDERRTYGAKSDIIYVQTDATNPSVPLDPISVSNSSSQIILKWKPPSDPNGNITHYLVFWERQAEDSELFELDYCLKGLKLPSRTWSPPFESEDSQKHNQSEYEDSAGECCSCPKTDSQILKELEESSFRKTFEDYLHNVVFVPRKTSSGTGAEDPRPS

Row | Molecule | glycated hemoglobin ([1]; diabetes models) | blood plasma cholesterol and triglycerides levels [1, 4] | insulin sensitivity [1, 4] | onset of colorectal cancer (colorectal cancer in rat) | ability to stimulate insulin receptor kinase activity (insulin receptor) | absorption (rate and efficiency, in words) [2] | absorption efficiency [2] | DNA cleavage (DNA) | effect on body mass, percentage lean or fat content, tissue size, blood variables (rats) | chromosome damage (chromosome) | insulin requirements ([3]; 138 adult-onset diabetic patients) | glycemic control ([3]; 180 adult-onset diabetic patients) | acute toxic effects (rats; rats, up to 1500 μg/kg diet for up to 24 weeks)
1 | CCC(=O)[O-].CCC(=O)[O-].CCC(=O)[O-].CCC(=O)[O-].CCC(=O)[O-].CCC(=O)[O-].O.O.O.[Cr+3].[Cr+3].[Cr+3].[O-2] [Complex 1, [[Cr3O(O2CCH2CH3)6(H2O)3]^+] | reduce glycated hemoglobin | improve | increase insulin sensitivity | reduce the onset of colorectal cancer | mimic the ability of LMWCr to stimulate insulin receptor kinase activity | absorbed very rapidly and very efficiently | 40-60% | not to lead to DNA cleavage | – | – | – | – | –
2 | [Cl][Cr]([Cl])[Cl] [chromium chloride] | – | – | – | – | – | – | – | – | no effect | – | – | – | –
3 | chromium(III) tris(picolinate) [Cr(pic)3] | – | – | – | – | – | – | 0.5-2% | – | no effect | cause chromosome damage | reduced insulin requirements | improved glycemic control | no acute toxic effects
